Results: PubChem BioAssay (NCI)
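Five compound concentrations were applied to cells in 96-well plates for 48 hours; endpoints were derived by simple linear interpolation of the resulting dose-response curve. Definition used: TGI = concentration required for complete inhibition of growth.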

tested on: TK-10 renal; assay: growth of human tumour cells (NCI), 48 h

Going from `CC(=O)OC1CC2c3cccc4c3C(CC2N(C)C1=O)CN4C(=O)c1ccccc1` (stereo not given) to `O=C(O)c1nc(-c2ccccn2)c(-c2ccccn2)nc1C(=O)O`, the TGI falls from greater than 100 µM to 15.3 µM.

`COc1ccc2c3c1O[C@H]1C(O)CCC4(O)[C@@H](C2)NCC[C@]314` (stereo not given in full) and `COc1cc(/C=C2\C[C@H]3[C@@H]4CC=C5C[C@@H](O)CC[C@]5(C)[C@H]4CC[C@]3(C)C2=O)cc(OC)c1OC` cannot be ordered by TGI: greater than 100 µM for the first, greater than 100 µM for the second.

First: Cc1cc(C)cc(C(=N)c2ccccc2Cc2cccc3ccccc23)c1
Second: C#CCn1ncc2c(SCc3ccccc3)ncnc21
The TGI of the first is lower: 94.6 µM for the first, greater than 100 µM for the second.

For `CCOC(=O)C1(C(=O)OCC)CN(CC)CN(c2ccccc2)C1`, the TGI was 33.1 µM.

tested on: MDA-N; assay: growth of human tumour cells (NCI), 48 h

Going from `CC(=O)OC1CC2c3cccc4c3C(CC2N(C)C1=O)CN4C(=O)c1ccccc1` (stereo not given) to `O=C(O)c1nc(-c2ccccn2)c(-c2ccccn2)nc1C(=O)O`, the TGI falls from 77.1 µM to 29.2 µM (2.6-fold).

Going from `COc1ccc2c3c1O[C@H]1C(O)CCC4(O)[C@@H](C2)NCC[C@]314` (stereo not given in full) to `COc1cc(/C=C2\C[C@H]3[C@@H]4CC=C5C[C@@H](O)CC[C@]5(C)[C@H]4CC[C@]3(C)C2=O)cc(OC)c1OC`, the TGI falls from greater than 100 µM to 87.1 µM.

Compared with `Cc1cc(C)cc(C(=N)c2ccccc2Cc2cccc3ccccc23)c1`, `C#CCn1ncc2c(SCc3ccccc3)ncnc21` is higher in TGI: 54.2 µM for the first, greater than 100 µM for the second.

For `CCOC(=O)C1(C(=O)OCC)CN(CC)CN(c2ccccc2)C1`, the TGI was 87.9 µM.

tested on: OVCAR-4 ovarian; assay: growth of human tumour cells (NCI), 48 h

First: CC(=O)OC1CC2c3cccc4c3C(CC2N(C)C1=O)CN4C(=O)c1ccccc1 (stereo not given)
Second: O=C(O)c1nc(-c2ccccn2)c(-c2ccccn2)nc1C(=O)O
The TGI of the first is 7.4-fold higher: 92.3 µM for the first, 12.5 µM for the second.

Going from `COc1ccc2c3c1O[C@H]1C(O)CCC4(O)[C@@H](C2)NCC[C@]314` (stereo not given in full) to `COc1cc(/C=C2\C[C@H]3[C@@H]4CC=C5C[C@@H](O)CC[C@]5(C)[C@H]4CC[C@]3(C)C2=O)cc(OC)c1OC`, the TGI falls from greater than 100 µM to 96.6 µM.

First: Cc1cc(C)cc(C(=N)c2ccccc2Cc2cccc3ccccc23)c1
Second: C#CCn1ncc2c(SCc3ccccc3)ncnc21
The TGI of the first is lower: 33.7 µM for the first, greater than 100 µM for the second.

In the case of `CCOC(=O)C1(C(=O)OCC)CN(CC)CN(c2ccccc2)C1`, the TGI is reported as 49.1 µM.

tested on: RPMI-8226 leukemia; assay: growth of human tumour cells (NCI), 48 h

`CC(=O)OC1CC2c3cccc4c3C(CC2N(C)C1=O)CN4C(=O)c1ccccc1` (stereo not given) and `O=C(O)c1nc(-c2ccccn2)c(-c2ccccn2)nc1C(=O)O` cannot be ordered by TGI: greater than 100 µM for the first, greater than 100 µM for the second.

Going from `COc1ccc2c3c1O[C@H]1C(O)CCC4(O)[C@@H](C2)NCC[C@]314` (stereo not given in full) to `COc1cc(/C=C2\C[C@H]3[C@@H]4CC=C5C[C@@H](O)CC[C@]5(C)[C@H]4CC[C@]3(C)C2=O)cc(OC)c1OC`, the TGI falls from greater than 100 µM to 45.4 µM.

Compared with `Cc1cc(C)cc(C(=N)c2ccccc2Cc2cccc3ccccc23)c1`, `C#CCn1ncc2c(SCc3ccccc3)ncnc21` is higher in TGI: 67 µM for the first, greater than 100 µM for the second.

With `CCOC(=O)C1(C(=O)OCC)CN(CC)CN(c2ccccc2)C1` the TGI was 45 µM.

tested on: K-562 leukemia; assay: growth of human tumour cells (NCI), 48 h

`CC(=O)OC1CC2c3cccc4c3C(CC2N(C)C1=O)CN4C(=O)c1ccccc1` (stereo not given) and `O=C(O)c1nc(-c2ccccn2)c(-c2ccccn2)nc1C(=O)O` cannot be ordered by TGI: greater than 100 µM for the first, greater than 100 µM for the second.

`COc1ccc2c3c1O[C@H]1C(O)CCC4(O)[C@@H](C2)NCC[C@]314` (stereo not given in full) and `COc1cc(/C=C2\C[C@H]3[C@@H]4CC=C5C[C@@H](O)CC[C@]5(C)[C@H]4CC[C@]3(C)C2=O)cc(OC)c1OC` cannot be ordered by TGI: greater than 100 µM for the first, greater than 100 µM for the second.

Going from `Cc1cc(C)cc(C(=N)c2ccccc2Cc2cccc3ccccc23)c1` to `C#CCn1ncc2c(SCc3ccccc3)ncnc21`, the TGI rises from 48.5 µM to greater than 100 µM.

`CCOC(=O)C1(C(=O)OCC)CN(CC)CN(c2ccccc2)C1` was tested, and the TGI was greater than 100 µM.

tested on: SF-295 CNS; assay: growth of human tumour cells (NCI), 48 h

First: CC(=O)OC1CC2c3cccc4c3C(CC2N(C)C1=O)CN4C(=O)c1ccccc1 (stereo not given)
Second: O=C(O)c1nc(-c2ccccn2)c(-c2ccccn2)nc1C(=O)O
The TGI of the first is 3.2-fold higher: 69.5 µM for the first, 21.8 µM for the second.

First: COc1ccc2c3c1O[C@H]1C(O)CCC4(O)[C@@H](C2)NCC[C@]314 (stereo not given in full)
Second: COc1cc(/C=C2\C[C@H]3[C@@H]4CC=C5C[C@@H](O)CC[C@]5(C)[C@H]4CC[C@]3(C)C2=O)cc(OC)c1OC
The TGI of the first is higher: greater than 100 µM for the first, 52.7 µM for the second.

Going from `Cc1cc(C)cc(C(=N)c2ccccc2Cc2cccc3ccccc23)c1` to `C#CCn1ncc2c(SCc3ccccc3)ncnc21`, the TGI rises from 25.5 µM to greater than 100 µM.

With `CCOC(=O)C1(C(=O)OCC)CN(CC)CN(c2ccccc2)C1` the TGI was greater than 100 µM.

tested on: BT-549 breast; assay: growth of human tumour cells (NCI), 48 h

`CC(=O)OC1CC2c3cccc4c3C(CC2N(C)C1=O)CN4C(=O)c1ccccc1` (stereo not given) and `O=C(O)c1nc(-c2ccccn2)c(-c2ccccn2)nc1C(=O)O` are within 1.5-fold of each other in TGI: 33.1 µM for the first, 37.6 µM for the second.

Compound `COc1ccc2c3c1O[C@H]1C(O)CCC4(O)[C@@H](C2)NCC[C@]314` (stereo not given in full) has a TGI greater than 100 µM.
